pIC50: −log10 of the molar value. Where a name gives a salt, the structure may show the parent alone.
What was measured:
human MAO-B = molecular target: T1, human MAO-B (Homo sapiens, UniProt P27338); assay: MAO-B enzymatic activity, spectrophotometric assay (Amplex Red, tyramine substrate) on membranes of transfected EBNA cells; format: biochemical; conditions: 30 min preincubation at 37° C., pH 7.4, tyramine substrate
T1 construct: expressed in transfected cells; host or cells: EBNA cells (transient transfection; cell membranes used)
T1 sequence (P27338 1-520): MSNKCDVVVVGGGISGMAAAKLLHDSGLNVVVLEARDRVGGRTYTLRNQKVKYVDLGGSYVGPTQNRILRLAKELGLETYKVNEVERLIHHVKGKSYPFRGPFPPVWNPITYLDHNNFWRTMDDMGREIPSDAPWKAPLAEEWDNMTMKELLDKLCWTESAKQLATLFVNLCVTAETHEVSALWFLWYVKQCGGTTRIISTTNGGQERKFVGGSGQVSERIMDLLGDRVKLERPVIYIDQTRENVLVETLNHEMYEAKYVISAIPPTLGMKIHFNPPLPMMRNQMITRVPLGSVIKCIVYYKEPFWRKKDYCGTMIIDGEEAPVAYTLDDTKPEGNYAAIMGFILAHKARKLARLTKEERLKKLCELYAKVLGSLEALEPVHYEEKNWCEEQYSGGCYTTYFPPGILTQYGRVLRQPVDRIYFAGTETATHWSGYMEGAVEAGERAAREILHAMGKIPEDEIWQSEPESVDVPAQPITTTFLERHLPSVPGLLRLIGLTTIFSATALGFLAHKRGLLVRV
Procedure: (§1) The cDNA's encoding human MAO-A and MAO-B were transiently transfected into EBNA cells using the procedure described by E.-J. Schlaeger and K. Christensen (Transient Gene Expression in Mammalian Cells Grown in Serum-free Suspension Culture; Cytotechnology, 15: 1-13, 1998). After transfection, cells were homogenized by means of a Polytron homogenizer in 20 mM Tris HCl buffer, pH 8.0, containing 0.5 mM EGTA and 0.5 mM phenylmethanesulfonyl fluoride. Cell membranes were obtained by centrifugation at 45,000×g and, after two rinsing step with 20 mM Tris HCl buffer, pH 8.0, containing 0.5 mM EGTA, membranes were eventually re-suspended in the above buffer and aliquots stored at −80° C. until use.
(§2) MAO-A and MAO-B enzymatic activity was assayed in 96-well-plates using a spectrophotometric assay adapted from the method described by M. Zhou and N. Panchuk-Voloshina (A One-Step Fluorometric Method for the Continuous Measurement of Monoamine Oxidase Activity, Analytical Biochemistry, 253: 169-174, 1997). Briefly, membrane aliquots were incubated in 0.1 M potassium phosphate buffer, pH 7.4, for 30 min at 37° C. with or without various concentrations of the compounds. After this period, the enzymatic reaction was started by the addition of the MAO substrate tyramine together with 1 U/ml horse-radish peroxidase (Roche Biochemicals) and 80 μM N-acetyl-3,7,-dihydroxyphenoxazine (Amplex Red, Molecular Probes). The samples were further incubated for 30 min at 37° C. in a final volume of 200 μl and absorbance was then determined at a wavelength of 570 nm using a SpectraMax plate reader (Molecular Devices). Background (non-specific) absorbance was determined in the presence of 10 μM clorgyline for MAO-A or 10 μM L-deprenyl for MAO-B.
(§3) IC50 values were determined from inhibition curves obtained using nine inhibitor concentrations in duplicate, by fitting data to a four parameter logistic equation using a computer program.

human MAO-A = molecular target: T2, human MAO-A (Homo sapiens, UniProt P21397); assay: MAO-A enzymatic activity, spectrophotometric assay (Amplex Red, tyramine substrate) on membranes of transfected EBNA cells; format: biochemical; conditions: 30 min preincubation at 37° C., pH 7.4, tyramine substrate
T2 construct: expressed in transfected cells; host or cells: EBNA cells (transient transfection; cell membranes used)
T2 sequence (P21397 1-527): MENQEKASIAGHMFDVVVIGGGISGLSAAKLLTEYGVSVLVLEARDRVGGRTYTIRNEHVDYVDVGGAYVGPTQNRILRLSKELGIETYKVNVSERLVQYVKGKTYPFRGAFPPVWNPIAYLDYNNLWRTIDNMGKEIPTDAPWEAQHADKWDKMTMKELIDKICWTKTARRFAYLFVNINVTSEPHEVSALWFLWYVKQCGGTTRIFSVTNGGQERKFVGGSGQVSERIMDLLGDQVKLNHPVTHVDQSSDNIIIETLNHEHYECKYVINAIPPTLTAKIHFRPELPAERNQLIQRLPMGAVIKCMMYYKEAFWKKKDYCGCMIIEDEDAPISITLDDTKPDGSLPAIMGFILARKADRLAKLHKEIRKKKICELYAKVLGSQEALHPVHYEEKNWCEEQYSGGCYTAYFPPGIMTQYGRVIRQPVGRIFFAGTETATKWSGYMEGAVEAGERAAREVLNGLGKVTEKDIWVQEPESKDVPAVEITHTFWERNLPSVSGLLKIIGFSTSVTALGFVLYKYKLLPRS
Procedure: as §1, §2, §3

Compound `O=C1c2ccc(OCc3ccc(F)cc3)cc2C(=O)N1Cc1cccs1` [Example 34, 5-(4-Fluoro-benzyloxy)-2-thiophen-2-ylmethyl-isoindole-1,3-dione] has a pIC50 (human MAO-B) of 7.09 and a pIC50 (human MAO-A) of less than 5.00.

Work on `NCCN1C(=O)c2ccc(OCc3ccc(F)cc3)cc2C1=O` [Example 9, 2-(2-Amino-ethyl)-5-(4-fluoro-benzyloxy)-isoindole-1,3-dione 1:1 hydrochloride] yielded a pIC50 (human MAO-B) of 7.49 and a pIC50 (human MAO-A) of less than 5.00.

Compound `COC[C@H](C)N1C(=O)c2ccc(OCc3ccc(F)c(F)c3)cc2C1=O` [Example 31, (S)-5-(3,4-Difluoro-benzyloxy)-2-(2-methoxy-1-methyl-ethyl)-isoindole-1,3-dione] has a pIC50 (human MAO-B) of 7.49 and a pIC50 (human MAO-A) of 5.46.

Work on `C[C@@H](C(N)=O)N1C(=O)c2ccc(OCc3cccc(F)c3)cc2C1=O` [Example 44, (S)-2-[5-(3-Fluoro-benzyloxy)-1,3-dioxo-1,3-dihydro-isoindol-2-yl]-propionamide] yielded a pIC50 (human MAO-B) of 8.15 and a pIC50 (human MAO-A) of 5.24.

`COC[C@H](C)N1C(=O)c2ccc(OCc3ccc(Br)cc3)cc2C1=O` [Example 28, (S)-5-(4-Bromo-benzyloxy)-2-(2-methoxy-1-methyl-ethyl)-isoindole-1,3-dione] showed a pIC50 (human MAO-B) of 7.47 and a pIC50 (human MAO-A) of less than 5.00.

`COC[C@H](C)N1C(=O)c2ccc(OCc3cccc(OC)c3)cc2C1=O` [Example 29, (S)-5-(3-Methoxy-benzyloxy)-2-(2-methoxy-1-methyl-ethyl)-isoindole-1,3-dione] was tested, and the pIC50 (human MAO-B) was 7.16 and the pIC50 (human MAO-A) was less than 5.00.

`O=C1c2ccc(OCc3ccc(F)cc3)cc2C(=O)N1CCO` [Example 12, 5-(4-Fluoro-benzyloxy)-2-(2-hydroxy-ethyl)-isoindole-1,3-dione] was tested, and the pIC50 (human MAO-B) was 8.40 and the pIC50 (human MAO-A) was 6.43.

`NC(=O)CC(O)CN1C(=O)c2ccc(OCc3ccc(F)cc3)cc2C1=O` (stereo not drawn) [Example 22, 4-[5-(4-Fluoro-benzyloxy)-1,3-dioxo-1,3-dihydro-isoindol-2-yl]-3-hydroxy-butyramide] showed a pIC50 (human MAO-B) of 7.01 and a pIC50 (human MAO-A) of less than 5.00.

With `C[C@@H](C(N)=O)N1C(=O)c2ccc(OCc3ccc(F)cc3)cc2C1=O` [Example 2, (S)-2-[5-(4-Fluoro-benzyloxy)-1,3-dioxo-1,3-dihydro-isoindol-2-yl]-propionamide] the pIC50 (human MAO-B) was 8.10 and the pIC50 (human MAO-A) was 6.11.

Work on `NCCN1C(=O)c2ccc(OCc3cccc(F)c3)cc2C1=O` [Example 50, 2-(2-Amino-ethyl)-5-(3-fluoro-benzyloxy)-isoindole-1,3-dione 1:1 hydrochloride] yielded a pIC50 (human MAO-B) of 7.41 and a pIC50 (human MAO-A) of less than 5.00.

With `NC(=O)[C@H](CO)N1C(=O)c2ccc(OCc3cccc(F)c3)cc2C1=O` [Example 52, (S)-2-[5-(3-Fluoro-benzyloxy)-1,3-dioxo-1,3-dihydro-isoindol-2-yl]-3-hydroxy-propionamide] the pIC50 (human MAO-B) was 7.70 and the pIC50 (human MAO-A) was less than 5.00.

Compound `NC(=O)[C@H](CO)N1C(=O)c2ccc(OCc3ccc(F)cc3)cc2C1=O` [Example 14, (S)-2-[5-(4-Fluoro-benzyloxy)-1,3-dioxo-1,3-dihydro-isoindol-2-yl]-3-hydroxy-propionamide] has a pIC50 (human MAO-B) of 7.77 and a pIC50 (human MAO-A) of less than 5.00.

`CC[S+]([O-])CCN1C(=O)c2ccc(OCc3ccc(F)cc3)cc2C1=O` (stereo not drawn) [Example 38, 2-(2-Ethanesulfinyl-ethyl)-5-(4-fluoro-benzyloxy)-isoindole-1,3-dione] gave a pIC50 (human MAO-B) of 6.94 and a pIC50 (human MAO-A) of less than 5.00.

`COC[C@H](C)N1C(=O)c2ccc(OCc3ccc(C#N)cc3)cc2C1=O` [Example 30, (S)-4-[2-(2-Methoxy-1-methyl-ethyl)-1,3-dioxo-2,3-dihydro-1H-isoindol-5-yloxymethyl]-bezonitrile] showed a pIC50 (human MAO-B) of 6.89 and a pIC50 (human MAO-A) of 5.21.

Compound `CCSCCN1C(=O)c2ccc(OCc3ccc(F)cc3)cc2C1=O` [Example 19, 2-(2-Ethylsulfanyl-ethyl)-5-(4-fluoro-benzyloxy)-isoindole-1,3-dione] has a pIC50 (human MAO-B) of 7.96 and a pIC50 (human MAO-A) of less than 5.00.

`COC[C@H](C)N1C(=O)c2ccc(OCc3ccc(OC(F)(F)F)cc3)cc2C1=O` [Example 32, (S)-2-(2-Methoxy-1-methyl-ethyl)-5-(4-trifluoromethoxy-benzyloxy)-isoindole-1,3-dione] showed a pIC50 (human MAO-B) of 7.33 and a pIC50 (human MAO-A) of less than 5.00.

`N#CCN1C(=O)c2ccc(OCc3ccc(F)cc3)cc2C1=O` [Example 7] showed a pIC50 (human MAO-B) of 7.47 and a pIC50 (human MAO-A) of less than 5.00.

Compound `COC(CN1C(=O)c2ccc(OCc3ccc(F)cc3)cc2C1=O)C(F)(F)F` (stereo not drawn) [Example 43] has a pIC50 (human MAO-B) of 7.35 and a pIC50 (human MAO-A) of less than 5.00.
